Data from patent US20170114128A1, “USE OF TGF-BETA ANTAGONISTS OF TREAT TYPE-2 DIABETES” (ALBERT EINSTEIN COLLEGE OF MEDICINE, INC., priority 2014, published 2017).

Test system: normal C57BL/6 mice
Assay: Intra-third ventricle injection of TGF-β1, GTT, ITT, food intake and body weight
Assay type: in vivo
Description: Brain TGF-β excess impairs glucose tolerance: To study the metabolic effects of brain TGF-β excess, a pharmacological approach was first used by which TGF-β was delivered into the hypothalamic third ventricle of normal C57BL/6 mice via pre-implanted cannula. To optimize the dosage, different doses of TGF-β1 (0, 0.5, 1.0, and 4.0 ng) were injected, and TGF-β1 concentrations measured in the CSF at various time points post-injection. […] Based on this condition, overnight-fasted mice were given intra-third ventricle injections of TGF-β1 in these doses, one injection at night after food was removed, and the second injection in the following morning at 4 hours prior to glucose tolerance test (GTT). […] In sum, a pharmacological induction of brain TGF-β excess can acutely cause pre-diabetic changes including glucose intolerance and insulin resistance.
Animals. Tgfb1^lox/lox mice, Tgfbr2^lox/lox mice, Tgfb1^+/− mice, GFAP-Cre mice, and T1r4^−/− mice on C57BL/6 were obtained from Jackson (32,56-59) and continued to be maintained on C57BL/6. CMV-lox-stop-lox-Tgfb1 mice(30) obtained from Jackson were backcrossed into C57BL/6. POMC-Cre mice maintained on C57BL/6 were used in our previous research (20,60). All mice were housed in standard, pathogen-free animal facility with 12 h/12 h light and darkness cycles, and adult male mice were used in experiments of this work. Mice were maintained on normal chow since weaning, and for some experiments involving HFD feeding, a HFD (45% kcal fat, Research Diets, Inc.) was used when mice were two to three months old. Food intake and body weight of mice were measured using a laboratory scale. GTT was performed in mice through intraperitoneal (i.p.) injection of glucose at 2 g/kg body weight. ITT was performed in mice through i.p. injection of human recombinant insulin (Nova Nordisk) at the dose of 0.7 U/kg body weight. Blood glucose levels during GTT and ITT were measured with LifeScan® blood glucose monitoring system. All procedures were approved by the Institutional Animal Care and Use Committee of Albert Einstein College of Medicine.
Brain injection. […]

TGF-β1: transforming growth factor-β1 (Sigma), cytokine dissolved in artificial cerebrospinal fluid for third-ventricle injection
glucose intolerance effect, comparison of doses (4 ng): slightly strongest
sensitivity of insulin in lowing blood glucose (ITT) (4 ng, third ventricle): significantly dampened
glucose tolerance in GTT (each dose (0.5, 1.0, 4.0 ng), two intra-third ventricle injections, overnight-fasted): led to glucose intolerance
